Source: ChEMBL document CHEMBL5665443, “Enzyme Inhibitor Single Concentration assay results for EUbOPEN Chemogenomics Library” (2024)
Where a SMILES comes first, the peptide text is derived from it.

What was measured:
[1] = biological target: G/T mismatch-specific thymine DNA glycosylase (Homo sapiens) (UniProt Q13569); settings: Compound Concentration 10.0 uM, Hit No;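 also: human TDG cleavage of quenched duplex DNA oligonucleotides coupled to APE1, strand release read as fluorescence at 594 nm, inhibition of TDG activity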
Description: Inhibition of TDG by quantifying inhibition of TDG-mediated cleavage and dissociation of quenched duplex DNA oligonucleotides, measured as fluorescence at 594 nm. To generate a functional strand incision and increase turn-over this assay is coupled to APE1.

[2] = biological target: T1, Endonuclease III-like protein 1 (Homo sapiens) (UniProt P78549); settings: Compound Concentration 10.0 uM, Hit No;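 also: enzyme assay tracking NTHL1 cutting and release of a quenched double-stranded DNA oligo substrate, read as fluorescence at 594 nm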
T1 sequence (whole entry): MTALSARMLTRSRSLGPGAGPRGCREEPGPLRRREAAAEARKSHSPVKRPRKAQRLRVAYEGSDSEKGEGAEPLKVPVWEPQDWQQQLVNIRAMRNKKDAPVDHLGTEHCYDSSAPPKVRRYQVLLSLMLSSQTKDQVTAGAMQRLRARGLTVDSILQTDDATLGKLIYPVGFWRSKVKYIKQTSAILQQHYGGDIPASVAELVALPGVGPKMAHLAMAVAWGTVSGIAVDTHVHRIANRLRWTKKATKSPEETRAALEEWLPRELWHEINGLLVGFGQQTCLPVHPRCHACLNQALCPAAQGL
Description: Inhibition of NTHL1 by quantifying inhibition of NTHL1-mediated cleavage and dissociation of quenched duplex DNA oligonucleotides, measured as fluorescence at 594 nm.

[3] = biological target: DNA-3-methyladenine glycosylase (Homo sapiens) (UniProt P29372); settings: Compound Concentration 10.0 uM, Hit No;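 also: enzyme assay where MPG cuts a quenched duplex DNA oligonucleotide probe, paired with APE1 for strand incision and turnover, read as fluorescence at 594 nm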
Description: Inhibition of MPG by quantifying inhibition of MPG-mediated cleavage and dissociation of quenched duplex DNA oligonucleotides, measured as fluorescence at 594 nm. To generate a functional strand incision and increase turn-over this assay is coupled to APE1.

[4] = biological target: Uracil-DNA glycosylase (Homo sapiens) (UniProt P13051); settings: Compound Concentration 10.0 uM, Hit No;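 also: UNG excision on a quenched double-stranded DNA oligo probe, with APE1 added for strand incision and turnover, read as fluorescence at 594 nm as strands separate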
Description: Inhibition of UNG by quantifying inhibition of UNG-mediated cleavage and dissociation of quenched duplex DNA oligonucleotides, measured as fluorescence at 594 nm. To generate a functional strand incision and increase turn-over this assay is coupled to APE1.

[5] = biological target: Endonuclease 8-like 1 (Homo sapiens) (UniProt Q96FI4); settings: Compound Concentration 10.0 uM, Hit No;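 also: fluorescence at 594 nm from quenched duplex DNA oligonucleotides released by NEIL1 cleavage and strand separation, reported as reduction of this enzyme activity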
Description: Inhibition of NEIL1 by quantifying inhibition of NEIL1-mediated cleavage and dissociation of quenched duplex DNA oligonucleotides, measured as fluorescence at 594 nm.

[6] = biological target: N-glycosylase/DNA lyase (Homo sapiens) (UniProt O15527); settings: Compound Concentration 10.0 uM, Hit No;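 also: OGG1 cleavage of a quenched duplex DNA oligonucleotide, coupled to APE1 for strand incision, read as fluorescence at 594 nm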
Description: Inhibition of OGG1 by quantifying inhibition of OGG1-mediated cleavage and dissociation of quenched duplex DNA oligonucleotides, measured as fluorescence at 594 nm. To generate a functional strand incision and increase turn-over this assay is coupled to APE1.

[7] = biological target: T2, Adenine DNA glycosylase (Homo sapiens) (UniProt Q9UIF7); settings: Compound Concentration 10.0 uM, Hit No;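 also: human MUTYH activity read as 594 nm fluorescence from cleavage and release of a quenched DNA duplex, coupled with APE1 for strand incision, lower signal meaning inhibition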
T2 sequence (whole entry): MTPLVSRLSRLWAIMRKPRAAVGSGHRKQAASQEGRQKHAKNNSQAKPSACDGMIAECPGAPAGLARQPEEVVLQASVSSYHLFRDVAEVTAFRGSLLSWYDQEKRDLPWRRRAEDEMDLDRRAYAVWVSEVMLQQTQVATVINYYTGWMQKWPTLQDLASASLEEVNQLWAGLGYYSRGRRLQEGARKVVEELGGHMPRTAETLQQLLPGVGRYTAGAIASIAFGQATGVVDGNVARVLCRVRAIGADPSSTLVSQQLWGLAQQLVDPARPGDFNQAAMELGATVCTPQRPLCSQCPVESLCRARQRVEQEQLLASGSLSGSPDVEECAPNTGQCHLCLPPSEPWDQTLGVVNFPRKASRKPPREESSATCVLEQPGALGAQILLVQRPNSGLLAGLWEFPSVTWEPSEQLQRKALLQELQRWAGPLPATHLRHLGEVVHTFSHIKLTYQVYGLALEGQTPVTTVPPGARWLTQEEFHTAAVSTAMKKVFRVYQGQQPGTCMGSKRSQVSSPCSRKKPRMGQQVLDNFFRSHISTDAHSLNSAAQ
Description: Inhibition of MUTYH by quantifying inhibition of MUTYH-mediated cleavage and dissociation of quenched duplex DNA oligonucleotides, measured as fluorescence at 594 nm. To generate a functional strand incision and increase turn-over this assay is coupled to APE1.

[8] = biological target: T3, Single-strand selective monofunctional uracil DNA glycosylase (Homo sapiens) (UniProt Q53HV7); settings: Compound Concentration 10.0 uM, Hit No;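 also: enzymatic SMUG1 assay coupled with APE1, reading fluorescence at 594 nm released when a quenched double-stranded DNA oligonucleotide substrate is cleaved and separated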
T3 sequence (whole entry): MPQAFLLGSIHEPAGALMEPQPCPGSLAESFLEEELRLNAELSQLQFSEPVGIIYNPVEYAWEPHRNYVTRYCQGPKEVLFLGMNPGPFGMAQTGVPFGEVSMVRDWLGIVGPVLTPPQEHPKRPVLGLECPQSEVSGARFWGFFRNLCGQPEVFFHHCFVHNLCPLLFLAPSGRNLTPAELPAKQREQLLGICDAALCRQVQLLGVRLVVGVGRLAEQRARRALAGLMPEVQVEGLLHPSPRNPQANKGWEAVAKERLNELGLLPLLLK
Description: Inhibition of SMUG1 by quantifying inhibition of SMUG1-mediated cleavage and dissociation of quenched duplex DNA oligonucleotides, measured as fluorescence at 594 nm. To generate a functional strand incision and increase turn-over this assay is coupled to APE1.

[9] = biological target: Methyl-CpG-binding domain protein 4 (Homo sapiens) (UniProt O95243); settings: Compound Concentration 10.0 uM, Hit No;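 also: MBD4 activity read as fluorescence at 594 nm from cleavage and release of a quenched duplex DNA oligonucleotide, with APE1 coupled to incise the strand and raise turnover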
Description: Inhibition of MBD4 by quantifying inhibition of MBD4-mediated cleavage and dissociation of quenched duplex DNA oligonucleotides, measured as fluorescence at 594 nm. To generate a functional strand incision and increase turn-over this assay is coupled to APE1.

[10] = biological target: T4, Endonuclease 8-like 2 (Homo sapiens) (UniProt Q969S2); settings: Compound Concentration 10.0 uM;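 also: fluorescence at 594 nm reports NEIL2 cutting and release of a quenched double-stranded DNA oligo substrate, reduced signal read as inhibition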
T4 sequence (whole entry): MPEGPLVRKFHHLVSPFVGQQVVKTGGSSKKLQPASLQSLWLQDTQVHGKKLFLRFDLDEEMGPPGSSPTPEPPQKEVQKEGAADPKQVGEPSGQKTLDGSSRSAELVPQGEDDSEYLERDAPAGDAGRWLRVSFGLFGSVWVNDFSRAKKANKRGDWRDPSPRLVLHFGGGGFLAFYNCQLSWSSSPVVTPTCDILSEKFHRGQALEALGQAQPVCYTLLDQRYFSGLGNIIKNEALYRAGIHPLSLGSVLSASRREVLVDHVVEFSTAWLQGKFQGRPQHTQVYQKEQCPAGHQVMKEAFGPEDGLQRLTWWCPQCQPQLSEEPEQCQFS
Description: Inhibition of NEIL2 by quantifying inhibition of NEIL2-mediated cleavage and dissociation of quenched duplex DNA oligonucleotides, measured as fluorescence at 594 nm.

Uracil-DNA glycosylase (Homo sapiens), sequence (P13051 whole entry): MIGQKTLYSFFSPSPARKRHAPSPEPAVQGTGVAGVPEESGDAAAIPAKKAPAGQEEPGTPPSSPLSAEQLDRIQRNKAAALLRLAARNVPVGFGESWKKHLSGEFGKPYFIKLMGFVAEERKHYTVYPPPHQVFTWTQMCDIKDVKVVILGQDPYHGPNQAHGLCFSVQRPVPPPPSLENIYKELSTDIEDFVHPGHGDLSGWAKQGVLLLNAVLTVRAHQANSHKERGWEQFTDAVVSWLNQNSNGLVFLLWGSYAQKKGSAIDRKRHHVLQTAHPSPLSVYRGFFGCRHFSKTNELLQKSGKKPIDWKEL
DNA-3-methyladenine glycosylase (Homo sapiens), sequence (P29372 whole entry): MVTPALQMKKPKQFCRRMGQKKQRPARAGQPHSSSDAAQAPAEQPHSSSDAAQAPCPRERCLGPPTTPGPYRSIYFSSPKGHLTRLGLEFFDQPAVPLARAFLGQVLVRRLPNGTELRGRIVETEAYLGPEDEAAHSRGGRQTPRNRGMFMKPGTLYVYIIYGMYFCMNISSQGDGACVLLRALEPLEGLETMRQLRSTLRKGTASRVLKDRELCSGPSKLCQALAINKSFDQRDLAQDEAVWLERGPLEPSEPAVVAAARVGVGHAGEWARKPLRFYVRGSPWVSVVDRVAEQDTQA
Endonuclease 8-like 1 (Homo sapiens), sequence (Q96FI4 whole entry): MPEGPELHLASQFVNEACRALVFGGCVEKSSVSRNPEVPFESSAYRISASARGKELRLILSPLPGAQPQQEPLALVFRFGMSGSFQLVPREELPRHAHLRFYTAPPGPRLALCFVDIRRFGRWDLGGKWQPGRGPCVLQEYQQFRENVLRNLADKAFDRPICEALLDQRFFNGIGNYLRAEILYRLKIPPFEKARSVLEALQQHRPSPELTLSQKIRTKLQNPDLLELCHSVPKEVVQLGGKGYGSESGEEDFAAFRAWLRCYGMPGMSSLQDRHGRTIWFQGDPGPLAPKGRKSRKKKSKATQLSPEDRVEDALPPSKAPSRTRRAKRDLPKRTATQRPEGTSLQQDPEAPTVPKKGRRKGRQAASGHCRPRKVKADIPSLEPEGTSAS
Methyl-CpG-binding domain protein 4 (Homo sapiens), sequence (O95243 whole entry, the tested form may be a part): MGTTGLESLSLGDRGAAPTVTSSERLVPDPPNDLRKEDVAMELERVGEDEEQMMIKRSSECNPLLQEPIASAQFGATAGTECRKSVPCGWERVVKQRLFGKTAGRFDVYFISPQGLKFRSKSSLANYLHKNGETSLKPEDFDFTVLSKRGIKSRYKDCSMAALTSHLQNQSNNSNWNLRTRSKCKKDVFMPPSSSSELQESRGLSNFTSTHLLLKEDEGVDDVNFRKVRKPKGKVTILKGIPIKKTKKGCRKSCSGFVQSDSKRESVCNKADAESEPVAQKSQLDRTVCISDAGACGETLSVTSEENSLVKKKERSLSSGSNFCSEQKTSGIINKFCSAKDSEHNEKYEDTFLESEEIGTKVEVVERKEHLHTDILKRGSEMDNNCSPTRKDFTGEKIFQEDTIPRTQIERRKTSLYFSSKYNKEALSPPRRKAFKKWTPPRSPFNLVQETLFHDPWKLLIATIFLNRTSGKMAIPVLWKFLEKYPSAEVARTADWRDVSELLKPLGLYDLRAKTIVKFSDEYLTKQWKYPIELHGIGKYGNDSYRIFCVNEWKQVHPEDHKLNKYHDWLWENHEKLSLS
G/T mismatch-specific thymine DNA glycosylase (Homo sapiens), sequence (Q13569 whole entry): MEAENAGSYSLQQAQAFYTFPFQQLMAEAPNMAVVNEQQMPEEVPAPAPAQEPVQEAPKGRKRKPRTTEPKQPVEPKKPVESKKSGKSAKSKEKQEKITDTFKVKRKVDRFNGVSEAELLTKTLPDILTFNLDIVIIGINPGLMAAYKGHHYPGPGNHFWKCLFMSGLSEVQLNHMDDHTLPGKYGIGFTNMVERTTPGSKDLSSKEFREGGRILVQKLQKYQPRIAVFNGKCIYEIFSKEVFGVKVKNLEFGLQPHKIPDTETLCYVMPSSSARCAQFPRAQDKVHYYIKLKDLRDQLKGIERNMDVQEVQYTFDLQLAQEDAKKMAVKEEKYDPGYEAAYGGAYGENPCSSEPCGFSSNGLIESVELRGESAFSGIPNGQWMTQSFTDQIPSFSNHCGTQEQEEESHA
N-glycosylase/DNA lyase (Homo sapiens), sequence (O15527 whole entry): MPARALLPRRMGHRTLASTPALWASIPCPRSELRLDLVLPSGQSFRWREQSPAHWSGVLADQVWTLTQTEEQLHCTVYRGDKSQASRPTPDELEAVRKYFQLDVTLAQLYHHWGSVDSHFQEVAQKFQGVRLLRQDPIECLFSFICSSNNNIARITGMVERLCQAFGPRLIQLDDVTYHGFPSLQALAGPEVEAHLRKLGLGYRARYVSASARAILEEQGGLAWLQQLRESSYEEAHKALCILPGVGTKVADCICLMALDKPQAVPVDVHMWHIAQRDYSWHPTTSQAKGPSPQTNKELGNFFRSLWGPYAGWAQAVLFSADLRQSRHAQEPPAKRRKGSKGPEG

O=c1ccc2c(OCCCCc3ccccc3)c3ccoc3cc2o1
inhibition [1]: 5.01%
inhibition [2]: 7.17%
inhibition [3]: 2.27%
inhibition [4]: -2.86%
inhibition [5]: 4.31%
inhibition [6]: 0.716%
inhibition [7]: 4.38%
inhibition [8]: 0.0989%
inhibition [9]: -4.82%
inhibition ([10]; Hit No): 2.71%

O=C(O)C[C@H]1CCc2c1[nH]c1ccc(OCc3ccc(C4CCCC4)c(C(F)(F)F)c3)cc21
inhibition [1]: 45%
inhibition [2]: 36.4%
inhibition [3]: 18.9%
inhibition [4]: -6.26%
inhibition [5]: -9.84%
inhibition [6]: 34.1%
inhibition [7]: 9.75%
inhibition [8]: -8.03%
inhibition [9]: 47.5%
inhibition ([10]; Hit No): 0.515%

O=C(O)CC1CCC2(CC1)CCN(c1cc(OC(F)(F)F)ccc1Cl)CC2
inhibition [1]: 32.9%
inhibition [2]: -1.74%
inhibition [3]: 14.1%
inhibition [4]: -5.76%
inhibition [5]: 3.8%
inhibition [6]: 8.63%
inhibition [7]: 19.4%
inhibition [8]: 4.67%
inhibition [9]: 25.2%
inhibition ([10]; Hit No): 7.5%

Cn1c(C2(NC(=O)c3ccc4c(C5CCCC5)c(-c5ncc(Br)cn5)n(C)c4c3)CCC2)nc2ccc(/C=C/C(=O)O)cc21
inhibition [1]: 101%
inhibition [2]: 0.685%
inhibition [3]: 107%
inhibition [4]: 13.1%
inhibition [5]: 12.4%
inhibition [6]: 60.3%
inhibition [7]: 68.7%
inhibition [8]: 25.4%
inhibition [9]: 69.3%
inhibition ([10]; Hit Yes): 40.3%

COc1ccc(CC(=O)NCc2ccccc2-c2ccccc2C(=O)NCc2ccc(F)cc2F)cc1
inhibition [1]: 13.6%
inhibition [2]: -5.21%
inhibition [3]: 22.4%
inhibition [4]: 1.16%
inhibition [5]: 0.75%
inhibition [6]: -0.346%
inhibition [7]: 11.7%
inhibition [8]: 11%
inhibition [9]: 5.5%
inhibition ([10]; Hit No): 2.71%

CC[C@H](C)[C@H](NC(=O)[C@H](Cc1ccc(O)cc1)NC(=O)[C@@H](NC(=O)[C@H](CCCNC(=N)N)NC(=O)[C@@H](N)CC(=O)O)C(C)C)C(=O)N[C@@H](Cc1cnc[nH]1)C(=O)N[C@H](C)C(=O)O (HELM PEPTIDE1{D.R.V.Y.I.H.[dA]}$$$$V2.0)
inhibition [1]: 1.59%
inhibition [2]: 17.1%
inhibition [3]: -4.39%
inhibition [4]: -2.81%
inhibition [5]: 9.79%
inhibition [6]: -9.35%
inhibition [7]: -8.51%
inhibition [8]: -8.77%
inhibition [9]: 6.33%
inhibition ([10]; Hit No): -1.88%

CCCOc1ccc2[nH]cc(C3=CCNCC3)c2n1
inhibition [1]: 11.1%
inhibition [2]: 7.17%
inhibition [3]: -2.25%
inhibition [4]: -5.52%
inhibition [5]: 0.306%
inhibition [6]: -9.55%
inhibition [7]: 0.205%
inhibition [8]: -1.82%
inhibition [9]: -0.485%
inhibition ([10]; Hit No): -8.25%

NC(=O)NN=Cc1ccc(Oc2ccc(F)cc2)cc1
inhibition [1]: 11.3%
inhibition [2]: 0.568%
inhibition [3]: 2.76%
inhibition [4]: -5.79%
inhibition [5]: 9.49%
inhibition [6]: -9.24%
inhibition [7]: 8.22%
inhibition [8]: -4.59%
inhibition [9]: -2.63%
inhibition ([10]; Hit No): -3.41%

CN[C@@H]1CCc2[nH]c3ccc(C(N)=O)cc3c2C1
inhibition [1]: 16.1%
inhibition [2]: -9.8%
inhibition [3]: -3.1%
inhibition [4]: -5.51%
inhibition [5]: 8.84%
inhibition [6]: 3.36%
inhibition [7]: -4.97%
inhibition [8]: -7.16%
inhibition [9]: 14.9%
inhibition ([10]; Hit No): -0.483%

CC(C)C[C@@H](C(=O)N[C@@H](Cc1ccc(OCc2ccccc2)cc1)C(=O)NC(C)(C)C)N(C)Cc1ccc(C(C)(C)C)cc1
inhibition [1]: 11.4%
inhibition [2]: 23.7%
inhibition [3]: 6.32%
inhibition [4]: -6.44%
inhibition [5]: 2.38%
inhibition [6]: 14.7%
inhibition [7]: 5.01%
inhibition [8]: -4.08%
inhibition [9]: 16.1%
inhibition ([10]; Hit No): -9.01%

NCCc1c[nH]cn1
inhibition [1]: 7.61%
inhibition [2]: 15.1%
inhibition [3]: -7.46%
inhibition [4]: -7.79%
inhibition [5]: -0.352%
inhibition [6]: 0.419%
inhibition [7]: 10.5%
inhibition [8]: -0.0333%
inhibition [9]: 10.4%
inhibition ([10]; Hit No): -0.234%
